# According to patent US9624233B2, “Compounds for treating pruritic conditions” (priority 2015, dated 2017):
# Legend:
# Settings in all cases: 2.5E−05M
# OX2 (h) = biological target: T1, OX2 (h) (Homo sapiens, UniProt O43614); test: Abuse liability binding screen, OX2 (h) (agonist radioligand)
# T1 sequence (O43614 1-444): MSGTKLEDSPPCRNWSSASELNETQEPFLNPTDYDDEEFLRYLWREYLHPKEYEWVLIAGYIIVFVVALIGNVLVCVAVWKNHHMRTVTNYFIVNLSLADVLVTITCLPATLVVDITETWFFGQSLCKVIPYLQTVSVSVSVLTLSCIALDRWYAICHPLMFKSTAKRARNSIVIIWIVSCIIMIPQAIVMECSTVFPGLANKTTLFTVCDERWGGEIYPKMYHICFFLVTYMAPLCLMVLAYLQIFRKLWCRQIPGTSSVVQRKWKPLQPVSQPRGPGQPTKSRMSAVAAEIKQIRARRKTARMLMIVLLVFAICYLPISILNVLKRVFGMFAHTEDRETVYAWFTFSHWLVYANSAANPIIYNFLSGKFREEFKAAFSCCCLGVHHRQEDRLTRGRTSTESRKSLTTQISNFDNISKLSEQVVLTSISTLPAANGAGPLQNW
# Description: (§1) […]. The abuse liability screen included 44 targets (receptors, transporters, on gated-channel systems) related to the dopamine, norepinephrine, serotonin, gamma-aminobutyric acid (GABA), acetylcholine, N-methyl-D-aspartate (NMDA) cannabinoid and opioid neurotransmitter systems as recommended in FDA Draft guidance on Assessment of Abuse Potential of Drugs, January 2010.
# (§2) Compound binding was calculated as a % inhibition of the binding of a radioactively labeled ligand specific for each target.
# (§3) Results showing an inhibition or stimulation higher than 50% are considered to represent significant effects of the test compounds.
# [1] = test system: Cl^− channel (GABA-gated); test: Abuse liability binding screen, Cl− channel (GABA-gated) (antagonist radioligand)
# Description: as §2
# NMDA = test: Abuse liability binding screen, NMDA (antagonist radioligand)
# Description: as §2
# 5-HT2c (h) = biological target: T2, 5-HT2c (h) (Homo sapiens, UniProt P28335); test: Abuse liability binding screen, 5-HT2c (h) (agonist radioligand)
# T2 sequence (P28335 33-458): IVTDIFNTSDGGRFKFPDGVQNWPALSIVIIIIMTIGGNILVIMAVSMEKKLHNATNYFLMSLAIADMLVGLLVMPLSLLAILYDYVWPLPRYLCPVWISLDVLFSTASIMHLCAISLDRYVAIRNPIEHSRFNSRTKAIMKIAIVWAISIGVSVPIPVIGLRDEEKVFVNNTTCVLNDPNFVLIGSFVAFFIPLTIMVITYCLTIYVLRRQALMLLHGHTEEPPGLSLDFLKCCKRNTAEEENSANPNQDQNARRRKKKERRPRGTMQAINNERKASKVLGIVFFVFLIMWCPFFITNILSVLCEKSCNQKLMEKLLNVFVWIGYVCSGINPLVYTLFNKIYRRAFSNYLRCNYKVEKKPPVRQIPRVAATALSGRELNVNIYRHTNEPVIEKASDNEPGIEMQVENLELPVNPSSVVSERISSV
# Description: as §2
# OX1 (h) = biological target: T3, OX1 (h) (Homo sapiens, UniProt O43613); test: Abuse liability binding screen, OX1 (h) (agonist radioligand)
# T3 sequence (O43613 1-425): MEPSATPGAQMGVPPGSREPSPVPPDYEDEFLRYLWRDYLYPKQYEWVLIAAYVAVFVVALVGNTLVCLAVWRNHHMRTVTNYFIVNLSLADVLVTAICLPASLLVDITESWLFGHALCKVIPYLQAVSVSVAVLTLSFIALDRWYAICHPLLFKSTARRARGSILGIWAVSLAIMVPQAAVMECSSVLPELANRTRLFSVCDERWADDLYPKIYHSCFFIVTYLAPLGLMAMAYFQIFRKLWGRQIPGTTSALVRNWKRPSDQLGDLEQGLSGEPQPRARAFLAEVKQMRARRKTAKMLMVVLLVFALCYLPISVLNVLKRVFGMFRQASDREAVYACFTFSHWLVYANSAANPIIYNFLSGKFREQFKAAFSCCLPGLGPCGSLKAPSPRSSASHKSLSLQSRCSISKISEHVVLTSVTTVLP
# Description: as §2
# M2 (h) = biological target: T4, M2 (h) (Homo sapiens, UniProt P08172); test: Abuse liability binding screen, M2 (h) (antagonist radioligand)
# T4 sequence (P08172 1-466): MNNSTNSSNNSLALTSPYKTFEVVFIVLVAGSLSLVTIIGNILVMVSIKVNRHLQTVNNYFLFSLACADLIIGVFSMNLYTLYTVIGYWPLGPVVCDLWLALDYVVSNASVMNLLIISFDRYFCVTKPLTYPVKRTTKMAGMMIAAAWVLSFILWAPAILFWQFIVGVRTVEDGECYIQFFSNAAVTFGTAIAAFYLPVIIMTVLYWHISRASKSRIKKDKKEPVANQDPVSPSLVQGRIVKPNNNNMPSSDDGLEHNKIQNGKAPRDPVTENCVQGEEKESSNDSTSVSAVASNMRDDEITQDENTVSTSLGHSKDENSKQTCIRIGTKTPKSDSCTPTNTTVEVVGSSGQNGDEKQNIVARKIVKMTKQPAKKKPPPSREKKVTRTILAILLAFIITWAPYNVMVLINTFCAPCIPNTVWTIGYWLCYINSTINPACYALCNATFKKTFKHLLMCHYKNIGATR
# Description: as §1, §2, §3
# [2] = biological target: Norepinephrine transporter (h) (Homo sapiens, UniProt P23975); test: Abuse liability binding screen, Norepinephrine transporter (h) (antagonist radioligand)
# Norepinephrine transporter (h), sequence (P23975 whole entry): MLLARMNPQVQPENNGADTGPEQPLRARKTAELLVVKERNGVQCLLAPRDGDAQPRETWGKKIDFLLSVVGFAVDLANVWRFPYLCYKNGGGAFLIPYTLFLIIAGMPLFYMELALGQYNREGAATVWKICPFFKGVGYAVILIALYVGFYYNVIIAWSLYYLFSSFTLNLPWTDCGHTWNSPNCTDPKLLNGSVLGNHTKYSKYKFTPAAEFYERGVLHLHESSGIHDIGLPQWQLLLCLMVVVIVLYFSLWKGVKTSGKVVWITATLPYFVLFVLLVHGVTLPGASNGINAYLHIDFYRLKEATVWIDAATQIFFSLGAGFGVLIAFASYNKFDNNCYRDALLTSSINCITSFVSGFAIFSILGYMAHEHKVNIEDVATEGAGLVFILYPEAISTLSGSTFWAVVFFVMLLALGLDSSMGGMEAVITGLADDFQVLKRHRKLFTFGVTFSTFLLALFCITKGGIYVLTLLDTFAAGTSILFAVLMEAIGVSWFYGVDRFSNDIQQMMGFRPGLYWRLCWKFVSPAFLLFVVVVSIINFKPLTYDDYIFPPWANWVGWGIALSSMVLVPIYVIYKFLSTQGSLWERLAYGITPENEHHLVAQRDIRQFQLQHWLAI
# Description: as §1, §2, §3
smiles,measurement,setting,value
"O=C(O)[C@H]1O[C@@H](Oc2ccc3c4c2O[C@H]2[C@@H](O)CC[C@@]5(O)[C@@H](C3)N(CC3CCC3)CC[C@]425)[C@H](O)[C@@H](O)[C@@H]1O [Compound M5, nalbuphine-3-beta-D-glucuronid]",% Inhibition of Control Specific Binding 1st,OX2 (h),−3.5%
same,% Inhibition of Control Specific Binding 2nd,OX2 (h),−2.4%
same,% Inhibition of Control Specific Binding Mean,OX2 (h),−2.9%
same,% Inhibition of Control Specific Binding 1st,[1],3.3%
same,% Inhibition of Control Specific Binding 2nd,[1],−7.4%
same,% Inhibition of Control Specific Binding Mean,[1],−2.1%
same,% Inhibition of Control Specific Binding 1st,NMDA,−15.9%
same,% Inhibition of Control Specific Binding 2nd,NMDA,−14.7%
same,% Inhibition of Control Specific Binding 1st,5-HT2c (h),−7.9%
same,% Inhibition of Control Specific Binding 2nd,5-HT2c (h),−8.2%
same,% Inhibition of Control Specific Binding Mean,5-HT2c (h),−8.0%
same,% Inhibition of Control Specific Binding 1st,OX1 (h),5.5%
same,% Inhibition of Control Specific Binding 2nd,OX1 (h),−1.5%
same,% Inhibition of Control Specific Binding Mean,OX1 (h),2.0%
same,% Inhibition of Control Specific Binding 1st,M2 (h),−11.1%
same,% Inhibition of Control Specific Binding 2nd,M2 (h),7.6%
same,% Inhibition of Control Specific Binding Mean,M2 (h),−1.8%
same,% Inhibition of Control Specific Binding 1st,[2],−11.4%
same,% Inhibition of Control Specific Binding 2nd,[2],3.2%
same,% Inhibition of Control Specific Binding Mean,[2],−4.1%
